These results are taken from PubChem BioAssay (NCI).

The structures appear in SMILES notation.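 Interpolation was linear, between the two tested concentrations surrounding the appropriate level; five concentrations were tested over 48 hours in 96-well plates. Here, GI50 denotes the concentration required for 50% inhibition of growth. TGI marks complete inhibition of growth.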

What all share (assay): NCI anticancer screen, dose series, 48 h
Experiment [1] has as its system A498 renal.
The subject of experiment [2] is A549 NSCLC.
In experiment [3] the test system is ACHN renal.
Experiment [4] concerns DU-145 prostate.
The test system of experiment [5] is MCF7 breast.
For experiment [6], the system named is OVCAR-5 ovarian.
The subject of experiment [7] is SK-MEL-2 melanoma.
The test system of experiment [8] is SK-OV-3 ovarian.

On to `CCOC(=O)c1cc2cc3c4c(c2oc1=O)CCCN4CCC3`, for which the TGI in experiment [1] is 79 µM; in experiment [2], more than 100 µM; in experiment [3] it was more than 100 µM; in experiment [4], more than 100 µM; in experiment [5], 56.3 µM; in experiment [6] it was more than 100 µM. The TGI in experiment [7] is more than 100 µM.

For the compound `COc1cc(C2SCCCCCCCCCCSC(c3ccc(O)c(OC)c3)SCCCCCCCCCCS2)ccc1O` (stereo not given), the TGI in experiment [1], in experiment [2], in experiment [3], in experiment [4], in experiment [5] and in experiment [6] was more than 100 µM in each case. Besides, the TGI in experiment [7] and in experiment [8] was more than 100 µM each time.

Take `O=C1CC2C(=O)c3ccccc3CC2c2ccccc21` (stereo not given): the TGI in experiment [1], in experiment [2], in experiment [3], in experiment [4], in experiment [5] and in experiment [6] was more than 100 µM throughout. For the same compound, the TGI in experiment [7] and in experiment [8] was more than 100 µM each time.

Regarding `CCCCCCCCOC(=O)CC[C@@H](C)[C@H]1CC[C@H]2[C@@H]3[C@H](OC(=O)CCN)C[C@@H]4C[C@H](OC(=O)CCN)CC[C@]4(C)[C@H]3C[C@H](OC(=O)CCN)[C@]12C`, the GI50 was 23.8 µM in experiment [1]; 10.9 µM in experiment [2]; 15.9 µM in experiment [3]; 3.4 µM in experiment [4]; 3.24 µM in experiment [6]; 4.88 µM in experiment [7]. Besides, the GI50 in experiment [8] was 10.5 µM. The TGI in experiment [1] turned out to be 48.1 µM; in experiment [2], 27.1 µM; in experiment [3], 32.2 µM; in experiment [4], 9.7 µM; in experiment [6] it was 10.1 µM; in experiment [7], 18.7 µM. Also, the TGI in experiment [8] came out at 27 µM.

As to `Nc1nonc1-c1nc2cnccc2n1C1CC1`, the GI50 in experiment [1] is 1.97 µM; in experiment [2], 6.39 µM; in experiment [3], 6.25 µM; in experiment [4], 10.6 µM; in experiment [5], 6.05 µM; in experiment [6], 5.14 µM. Besides, the GI50 in experiment [7] was 5.35 µM; in experiment [8] it was 4.36 µM. Further, the TGI is 8.77 µM in experiment [1]; more than 25 µM in experiment [2]; more than 25 µM in experiment [3]; more than 25 µM in experiment [4]; more than 17.3 µM in experiment [5]; more than 25 µM in experiment [6]. The TGI is more than 21.7 µM in experiment [7] and 18.4 µM in experiment [8].

`O=c1c2cc(F)ccc2sc2c(N3CCNCC3)nc3ccc(F)cc3c12`: the GI50 in experiment [1] is 1.67 µM; in experiment [3] it was 1.48 µM; in experiment [4] it was 1.68 µM; in experiment [6], 1.66 µM; in experiment [7], 1.84 µM. For the same compound, the TGI in experiment [1] was found to be 3.09 µM; in experiment [3], 2.8 µM; in experiment [4], 3.09 µM; in experiment [6], 3.07 µM; in experiment [7], 3.53 µM.

`COc1cccc(/C(C#N)=C/c2nc3c(N4CCOCC4)nc(Cl)nc3n2C)c1`: the GI50 in experiment [1] was 1.49 µM; in experiment [2], 1.57 µM; in experiment [3], 0.625 µM; in experiment [4] it was 1.29 µM; in experiment [6], 1.55 µM; in experiment [7], 1.4 µM. The GI50 in experiment [8] was 5.42 µM. For the same compound, the TGI in experiment [1] amounted to 2.91 µM; in experiment [2], 4.23 µM; in experiment [3], 1.89 µM; in experiment [4], 2.58 µM; in experiment [6], 3.57 µM; in experiment [7] it was 2.81 µM. This compound yielded a TGI in experiment [8] of 18.3 µM.

Take `NS(=O)(=O)c1ccc(-n2nc3c(c2-c2ccc(Cl)cc2)Cc2ccccc2-3)cc1`: the GI50 is 4.7 µM in experiment [1]; 37.8 µM in experiment [2]; 19.8 µM in experiment [3]; 15.1 µM in experiment [4]; 22.9 µM in experiment [5]; 24.2 µM in experiment [6]. The GI50 in experiment [7] was 13.6 µM; in experiment [8], 77.1 µM. Further, the TGI in experiment [1] is 19.1 µM; in experiment [2] it was more than 100 µM; in experiment [3] it was 34.6 µM; in experiment [4], 33 µM; in experiment [5], 54.8 µM; in experiment [6], 57.4 µM. In addition, the TGI in experiment [7] was 29.3 µM; in experiment [8], more than 100 µM.

For the compound `O=C1/C(=C/c2cccc(Br)c2)COc2ccc(O)cc21`, the GI50 is 11.6 µM in experiment [1]; 4.12 µM in experiment [2]; 1.89 µM in experiment [3]; 4.48 µM in experiment [4]; 3.72 µM in experiment [6]; 3.79 µM in experiment [7]. In addition, the GI50 in experiment [8] is 7.33 µM. The TGI in experiment [1] is 23.9 µM; in experiment [2], 16.5 µM; in experiment [3], 4.16 µM; in experiment [4], 16.5 µM; in experiment [6], 14.5 µM; in experiment [7] it was 14.2 µM. The TGI in experiment [8] turned out to be 19.8 µM.

Regarding `CCOC(=O)Nc1nc2ccc(OC)cc2s1`, the GI50 in experiment [2], in experiment [3], in experiment [4], in experiment [5], in experiment [6] and in experiment [7] was more than 100 µM in each case. The GI50 in experiment [8] is more than 100 µM. For the same compound, the TGI in experiment [2], in experiment [3], in experiment [4], in experiment [5], in experiment [6] and in experiment [7] was more than 100 µM each time. The TGI in experiment [8] was more than 100 µM.

With `O=C(/C=C/c1ccccc1)C(Br)C(Br)c1ccccc1` (stereo not given), the GI50 in experiment [1] is 1.9 µM; in experiment [2], 2.79 µM; in experiment [3], 1.25 µM; in experiment [4], 1.64 µM; in experiment [6], 1.67 µM; in experiment [7], 1.82 µM. For the same compound, the GI50 in experiment [8] was 3.66 µM. Moreover, the TGI was 5.68 µM in experiment [1]; 9.3 µM in experiment [2]; 2.57 µM in experiment [3]; 3.24 µM in experiment [4]; 3.39 µM in experiment [6]; 3.6 µM in experiment [7]. The compound also returned a TGI in experiment [8] of 13.3 µM.
